Data published in PubChem BioAssay (NCI).
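Tested at 5 concentrations; 48 h exposure; 96-well plates; endpoints linearly interpolated, else capped at highest concentration. Definition used: TGI = concentration required for complete inhibition of growth.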

Columns and labels:
Experiment in all cases: inhibition of tumour cell growth, NCI panel, 48 h
[1] = tested on: PC-3 prostate
[2] = tested on: COLO 205 colon
[3] = tested on: OVCAR-5 ovarian
[4] = tested on: NCI-H522 lung
[5] = tested on: UO-31 renal
[6] = tested on: CCRF-CEM leukemia
[7] = tested on: HCT-116 colon
[8] = tested on: HL-60(TB) leukemia
[9] = tested on: EKVX NSCLC
[10] = tested on: 786-0 renal
[11] = tested on: NCI-H23 lung
[12] = tested on: NCI-H226 lung
[13] = tested on: MDA-MB-231 breast
[14] = tested on: RXF 393 renal
[15] = tested on: RPMI-8226 leukemia
[16] = tested on: UACC-257 melanoma
[17] = tested on: HT29 colon
[18] = tested on: M14 melanoma
[19] = tested on: SN12C renal
[20] = tested on: ACHN renal
[21] = tested on: NCI/ADR-RES ovarian
[22] = tested on: SK-MEL-28 melanoma
[23] = tested on: HOP-92 NSCLC
[24] = tested on: SW-620 colon
[25] = tested on: MCF7 breast
[26] = tested on: HCT-15 colon
[27] = tested on: MDA-MB-435
[28] = tested on: A549 NSCLC
[29] = tested on: CAKI-1 renal
[30] = tested on: DU-145 prostate
[31] = tested on: MDA-N
[32] = tested on: LOX IMVI melanoma
[33] = tested on: SF-268 CNS
[34] = tested on: SK-MEL-5 melanoma
[35] = tested on: T-47D breast
[36] = tested on: IGROV1 ovarian
[37] = tested on: NCI-H460 lung
[38] = tested on: SR leukemia
[39] = tested on: SNB-19 CNS
[40] = tested on: HCC-2998 colon
[41] = tested on: TK-10 renal
[42] = tested on: OVCAR-3 ovarian
[43] = tested on: SNB-75 CNS
[44] = tested on: MALME-3M melanoma
[45] = tested on: SF-539 CNS
[46] = tested on: HS 578T breast
[47] = tested on: SK-OV-3 ovarian
[48] = tested on: SK-MEL-2 melanoma
[49] = tested on: MOLT-4 leukemia
[50] = tested on: U251 CNS
[51] = tested on: A498 renal
[52] = tested on: OVCAR-8 ovarian
[53] = tested on: K-562 leukemia
[54] = tested on: HOP-62 NSCLC
[55] = tested on: KM12 colon
[56] = tested on: OVCAR-4 ovarian
[57] = tested on: SF-295 CNS
[58] = tested on: BT-549 breast
[59] = tested on: UACC-62 melanoma

Measured: TGI

C=CCNC(=O)NNC(O)(C(=O)OCC)C(F)(F)F (stereo not given)
not listed: [57] | [58] | [59]
> 100 µM: all other assays above

CCN(C(=O)N[C@@H](Cc1ccccc1)C(=O)N[C@@H](CC(C)C)C(=O)NC)c1ccccc1
not listed: [8] | [33] | [38] | [46] | [51]
> 100 µM: all other assays above
